Experimental data as given in US20110300222A1, “LUMINESCENT POROUS SILICON NANOPARTICLES, METHODS OF MAKING AND USING SAME” (THE REGENTS OF THE UNIVERSITY OF CALIFORNIA, priority 2009, published 2011).

Legend:
[1] = in ethanol; cited from earlier work
[2] = 25° C.; cited from earlier work
[3] = In vivo toxicity (body mass, histology of kidney, liver, spleen); design: species or system mouse; conditions: mice n=3, 2 mgDOX/kg i.v., period of 3 weeks
Procedure: In vivo degradation, toxicity, and circulation. All animal work was performed in accordance with the institutional animal protocol guidelines in place at the Burnham Institute for Medical Research, and it was reviewed and approved by the Institute's Animal Research Committee. […] For in vivo degradation studies, the mice were sacrificed 1 day, 1 week and 4 weeks after injection, and the brain, heart, kidney, liver, lung, and spleen were collected. The tissues were weighed, digested, and then analyzed for silicon content using ICP-OES. For the in vivo toxicity studies, the mass of each mouse was monitored for 4 weeks after injection and compared with control mice (PBS-injected). The sections of kidney, liver, and spleen tissues harvested from the mice 1 day and 4 weeks after injection were stained with haematoxylin and eosin and then examined by a pathologist.
To examine preliminary in vivo toxicity, body mass of the mice was monitored every 3 days over a period of 3 weeks.

[4] = Biodistribution of DOX in mouse organs (DOX fluorescence); format: in vivo; conditions: mice n=3, 24 h after single i.v. injection, 2 mgDOX/kg
Procedure: To determine biodistribution of free DOX and DOX-LPSiNP in mouse, the organs (liver, spleen, kidney, lung, heart, and brain) were collected 24 h after injection, weighed, homogenized in 1.5 mL of 0.3 M HCl 70% ethanol solution, and further incubated in the same solution overnight to extract DOX molecules from the organs and DOX-LPSiNP. The homogenized solution was spun down at 10,000 rpm for 10 min and the supernatant was only used to measure the DOX fluorescence. The DOX fluorescence (λex=480nm and λem=590 nm) in each tissue was quantified as % injected dose (% ID) per gram of wet tissue.

O=C(O)c1ccccc1C1=c2cc3c4c(c2Oc2c1cc1c5c2CCCN5CCC1)CCC[N+]=4CCC3.[Cl-] [Rhodamine 101]
quantum yield of standard [1]: 100%

OB(O)O [boric acid]
pKa [2]: 9.14

COc1cccc2c1C(=O)c1c(O)c3c(c(O)c1C2=O)C[C@@](O)(C(=O)CO)C[C@@H]3O[C@H]1C[C@H](N)[C@H](O)[C@H](C)O1 [free DOX, doxorubicin]
body mass (weight) change vs PBS control [3]: no statistically significant difference | biodistribution of DOX [4]: accumulated in kidney, lung, and heart
